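Exposure lasted 48 hours, with cells grown in 96-well plates and compounds tested at five concentrations. GI50 = concentration required for 50% inhibition of growth. The concentration for full growth arrest is given as TGI.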
Key:
Assay in all cases: DTP human tumour cell line panel, 48 h
[1] = test system: 786-0 renal
[2] = test system: A498 renal
[3] = test system: A549 NSCLC
[4] = test system: ACHN renal
[5] = test system: BT-549 breast
[6] = test system: CAKI-1 renal
[7] = test system: CCRF-CEM leukemia
[8] = test system: COLO 205 colon
[9] = test system: DU-145 prostate
[10] = test system: EKVX NSCLC
[11] = test system: HCC-2998 colon
[12] = test system: HCT-116 colon
[13] = test system: HCT-15 colon
[14] = test system: HL-60(TB) leukemia
[15] = test system: HOP-62 NSCLC
[16] = test system: HOP-92 NSCLC
[17] = test system: HS 578T breast
[18] = test system: HT29 colon
[19] = test system: IGROV1 ovarian
[20] = test system: K-562 leukemia
[21] = test system: KM12 colon
[22] = test system: LOX IMVI melanoma
[23] = test system: M14 melanoma
[24] = test system: MCF7 breast
[25] = test system: MDA-MB-231 breast
[26] = test system: MDA-MB-435
[27] = test system: MOLT-4 leukemia
[28] = test system: NCI-H226 lung
[29] = test system: NCI-H23 lung
[30] = test system: NCI-H460 lung
[31] = test system: NCI-H522 lung
[32] = test system: NCI/ADR-RES ovarian
[33] = test system: OVCAR-3 ovarian
[34] = test system: OVCAR-4 ovarian
[35] = test system: OVCAR-5 ovarian
[36] = test system: OVCAR-8 ovarian
[37] = test system: PC-3 prostate
[38] = test system: RPMI-8226 leukemia
[39] = test system: RXF 393 renal
[40] = test system: SF-268 CNS
[41] = test system: SF-295 CNS
[42] = test system: SF-539 CNS
[43] = test system: SK-MEL-2 melanoma
[44] = test system: SK-MEL-28 melanoma
[45] = test system: SK-MEL-5 melanoma
[46] = test system: SK-OV-3 ovarian
[47] = test system: SN12C renal
[48] = test system: SNB-19 CNS
[49] = test system: SNB-75 CNS
[50] = test system: SR leukemia
[51] = test system: SW-620 colon
[52] = test system: TK-10 renal
[53] = test system: U251 CNS
[54] = test system: UACC-257 melanoma
[55] = test system: UACC-62 melanoma
[56] = test system: UO-31 renal

CCCn1cnc2c(c1=N)C(c1ccc(F)cc1)c1sc3c(CC)cccc3c1O2 (stereo unspecified)
GI50 [1]: 0.443 µM | TGI [1]: > 89.2 µM | GI50 [2]: 0.0799 µM | TGI [2]: 1.04 µM | GI50 [3]: 0.236 µM | TGI [3]: > 90.7 µM | GI50 [4]: 0.133 µM | TGI [4]: 49.9 µM | GI50 [5]: 1.99 µM | TGI [5]: 19.1 µM | GI50 [6]: 0.0621 µM | TGI [6]: 18.3 µM | GI50 [7]: 0.314 µM | TGI [7]: > 67.9 µM | GI50 [8]: 0.354 µM | TGI [8]: 1.95 µM | GI50 [9]: 0.309 µM | TGI [9]: 15.3 µM | GI50 [10]: 0.481 µM | TGI [10]: > 100 µM | GI50 [11]: 0.337 µM | TGI [11]: 38.7 µM | GI50 [12]: 0.263 µM | TGI [12]: 4.77 µM | GI50 [13]: 0.179 µM | TGI [13]: > 100 µM | GI50 [14]: 0.243 µM | TGI [14]: 1.08 µM | GI50 [15]: 0.423 µM | TGI [15]: 29.7 µM | GI50 [16]: 0.0538 µM | TGI [16]: 4.19 µM | GI50 [17]: 0.0864 µM | TGI [17]: > 88 µM | GI50 [18]: 0.302 µM | TGI [18]: 27.3 µM | GI50 [19]: 0.176 µM | TGI [19]: 24 µM | GI50 [20]: 0.0583 µM | TGI [20]: > 100 µM | GI50 [21]: 0.275 µM | TGI [21]: > 42.3 µM | GI50 [22]: 0.0404 µM | TGI [22]: 31.3 µM | GI50 [23]: 0.182 µM | TGI [23]: 33.6 µM | GI50 [24]: 0.0247 µM | TGI [24]: > 100 µM | GI50 [25]: 0.325 µM | TGI [25]: > 62.3 µM | GI50 [26]: 0.0239 µM | TGI [26]: 0.06 µM | GI50 [27]: 0.434 µM | TGI [27]: > 100 µM | GI50 [28]: 0.395 µM | GI50 [29]: 0.138 µM | TGI [29]: 19.3 µM | GI50 [30]: 0.211 µM | TGI [30]: 13.9 µM | GI50 [31]: 0.0359 µM | TGI [31]: 8.08 µM | GI50 [32]: 0.0501 µM | TGI [32]: 26.4 µM | GI50 [33]: 0.068 µM | TGI [33]: 7.68 µM | GI50 [34]: 0.336 µM | TGI [34]: > 100 µM | GI50 [35]: 0.493 µM | TGI [35]: > 100 µM | GI50 [36]: 0.434 µM | TGI [36]: > 100 µM | GI50 [37]: 0.0798 µM | TGI [37]: > 51.4 µM | GI50 [38]: 0.2 µM | TGI [38]: > 22.9 µM | GI50 [39]: 0.0294 µM | TGI [39]: 0.13 µM | GI50 [40]: 0.241 µM | TGI [40]: > 100 µM | GI50 [41]: 0.0478 µM | TGI [41]: > 47.9 µM | GI50 [42]: 0.0949 µM | TGI [42]: 0.815 µM | GI50 [43]: 7.57 µM | TGI [43]: > 100 µM | GI50 [44]: 8.9 µM | TGI [44]: > 100 µM | GI50 [45]: 0.0998 µM | TGI [45]: 1.2 µM | GI50 [46]: 1.21 µM | TGI [46]: 35 µM | GI50 [47]: 0.398 µM | TGI [47]: 22.5 µM | GI50 [48]: 0.273 µM | TGI [48]: 49.4 µM | GI50 [49]: 0.0353 µM | TGI [49]: 36.5 µM | GI50 [50]: 0.117 µM | TGI [50]: > 42.3 µM | GI50 [51]: 0.237 µM | TGI [51]: > 100 µM | GI50 [52]: 19.4 µM | TGI [52]: > 100 µM | GI50 [53]: 0.273 µM | TGI [53]: > 40.6 µM | GI50 [54]: 27.5 µM | TGI [54]: > 100 µM | GI50 [55]: 0.038 µM | TGI [55]: 29 µM | GI50 [56]: 0.0813 µM | TGI [56]: > 100 µM

Source: PubChem BioAssay (NCI)
